From patent US20140248342A1, “Fe(III) 2,4-Dioxo-1-Carbonyl Complexes For Treatment And Prophylaxis Of Iron Deficiency Symptoms And Iron Deficiency Anaemias” (Vifor (International) AG, priority 2011, published 2014)
Read-outs that look alike come from different tables or passages of the source.

Experiments:
[1] = system: Male NMRI (SPF) mice fed a low-iron diet; test: Iron utilization in mouse model (low-iron diet, hemoglobin and body weight increase); type: in vivo; conditions: stomach tube, 2 mg iron/kg body weight/day, days 1-5 and 8-12; utilization on day 15 calculated from hemoglobin and body weight increase
Experimental: The excellent Fe utilizations that can be accomplished through the Fe complexes according to the invention were measured by means of the following mouse model.
Male NMRI (SPF) mice (approximately 3 weeks old) were fed a low-iron diet (approx. 5 ppm iron) for approximately 3 weeks. The iron complexes were then administered to them by means of a stomach tube (2 mg iron/kg body weight/day) 2 times a day for 5 days, with an interruption of 2 days (days 1-5 and 8-12). Utilization on day 15 was calculated from the hemoglobin increase and the body weight increase in accordance with the formula
0.07=Factor for 70 ml blood per kg body weight (BW)
Hb1=Hemoglobin level (g/l) on day 1 Hb2(3)=Hemoglobin level (g/l) on day 8 (or 15) BW4=body weight (g) on day 1 BW9(14)=body weight (g) on day 8 (or 15) Hb1 Control=average hemoglobin level (g/l) on day 1 in the control group, Hb2(3) Control=average hemoglobin level (g/l) on day 8 (or 15) in the control group, BW4 Control=average body weight (g) on day 1 in the control group, BW9(14) Control=average body weight (g) on day 8 (or 15) in the control group, Fe Dos.=entire administered iron (mg Fe) over 5 or 10 days,
Δ Utilization=Fe tot. utilized (examined group)−Fe ut. Control group, utilized from food, (mg Fe)

Sprague-Dawley rats [2] = test: Toxicity compared with Fe(acac)3: oral administration, single dose, observation until 24 h; type: in vivo; conditions: for Number of dead animals after 24 h / animals still alive after 24 hours: 6 Sprague-Dawley rats; for toxicological findings after 24 hours: Sprague-Dawley rats
Text: The toxicity of the novel iron complex compounds was compared with that of tris(acetylacetonate)iron.

Sprague-Dawley rats [3] = conditions: cited from earlier work; for toxicity in animal studies (in words): literature report London, Smith 1983

| Compound | Utilization n 15 d (abs. %) [1] [abs. %] | further results |
| --- | --- | --- |
| Tris-(2,4-dioxopentanamide)-iron(III)-complex [Example 3] | 82 | Number of dead animals after 24 h (Sprague-Dawley rats [2]; single oral dose 1400 mg/kg iron complex (170 mg/kg iron)): 0; animals still alive after 24 hours (Sprague-Dawley rats [2]; single oral dose 1400 mg/kg): 6; toxicological findings after 24 hours (Sprague-Dawley rats [2]; single oral dose 1400 mg/kg): absolutely no toxicological findings |
| Tris-(N,N,5,-trimethyl-2,4-dioxohexanamid)-iron(III)-complex [Example 9] | 89 | – |
| Tris-(ethyl 2,4-dioxopentanoate)-iron(III)-complex [Example 1] | 106 | Number of dead animals after 24 h (Sprague-Dawley rats [2]; single oral dose 1600 mg/kg iron complex (170 mg/kg iron)): 0; animals still alive after 24 hours (Sprague-Dawley rats [2]; single oral dose 1600 mg/kg): 6; toxicological findings after 24 hours (Sprague-Dawley rats [2]; single oral dose 1600 mg/kg): absolutely no toxicological findings |
| Tris-(methyl 2,4-dioxopentanoate)-iron(III)-complex [Example 2] | 94 | – |
| CC(=O)/C=C(/C)[O-].CC(=O)/C=C(/C)[O-].CC(=O)/C=C(/C)[O-].[Fe+3] [Fe(Acac)3, tris(acetylacetonate)iron] | – | toxicity in animal studies (in words) (Sprague-Dawley rats [3]): highly toxic; toxicity in animal studies (in words) (Sprague-Dawley rats [3]; listed as iron(III)-(acetylacetonate)3): very toxic; Number of dead animals after 24 h (Sprague-Dawley rats [3]; single oral dose 1000 mg/kg iron complex (160 mg/kg iron), 10 animals, Lit. 1): 6 |
| Tris-(1-(morpholin-4-yl)pentane-1,2,4-trione)-iron(III)-complex [Example 12] | 75 | – |
| Tris-(ethyl oxo(2-oxocyclohexyl)acetate)-iron(III)-complex [Example 6] | 65 | – |
| Tris-(N,N,5,5-tetramethyl-2,4-dioxohexanamide)-iron(III)-complex [Example 8] | 72 | – |
| Tris-(ethyl oxo(2-oxocyclopentyl)acetate)-iron(III)-complex [Example 5] | 59 | – |
| Tris-(5-methyl-1-(morpholin-4-yl)hexane-1,2,4-trione)-iron(III)-complex [Example 11] | 51 | – |
